According to PubChem BioAssay AID1963850 (Molecular Pharmacology Branch, DTP, NCI, 2024):

Test system: 192522-019-R-J2-PDC complex tumor spheroid viability
Assay: Anticancer human tumor 192522-019-R-J2-PDC patient-derived colon adenocarcinoma cell line growth inhibition [POLQ]
Settings: for IC50: curve of first compound; for viability, T/C: stronger effect = lower value
Procedure: Multicellular complex tumor spheroid response to Polymerase (POL) inhibitors (novobiocin, ART-558, RP6685) in combination with a variety of drugs and investigational agents in selected tumor cell lines
The POL inhibitors (novobiocin, ART-558, and RP6685) were evaluated both individually and in combination with standard of care and investigational anticancer small molecules within a complex spheroid model of solid tumors. . Complex spheroids include a stromal component modeled by human endothelial cells (HUVEC) and fibroblasts modeled by human mesenchymal stem cells (MSCs). The concentration ranges selected for each drug and investigational agent were based upon clinically achievable concentrations if the clinical Cmax of the agent was known.
Compounds. The drugs and investigational agents: novobiocin (NSC847541), ART-558 (NSC835418), RP-6685 (NSC848927), peposertib (NSC802822), ceralasertib (NSC780249), elimusertib (NSC800525), camonsertib (NSC841442), AZD-1390 (NSC803789), olaparib (NSC753686), talazoparib (NSC767125), rucaparib (NSC756644), sotorasib (NSC818433), MRTX-1133 (NSC836407), SN-38 (NSC673596), topotecan (NSC609699), epotoside (NSC141540), doxorubicin (NSC123127), gemcitabine (NSC613327), 5-fluorouracil (NSC19893), paclitaxel (NSC125973), vemurafenib (NSC761431), MSA-2 (NSC828583), SN-011 (NSC837082), adavosertib (NSC754352), prexasertib (NSC758257), carboplatin (NSC241240) and oxaliplatin (NSC266046), were obtained from the National Cancer Institute (NCI) Developmental Therapeutics Program Chemical Repository (21). The FDA-approved anticancer drug set is available from the Developmental Therapeutics Program at https://dtp.cancer.gov/organization/dscb/obtaining/. […] The stock solutions were prepared in dimethyl sulfoxide (DMSO, Sigma-Aldrich, St. Louis, MO, cat. D2650), except for the platinum compounds which were prepared in saline (Quality Biological, Gaithersburg, MD, cat. 114-055-101), at 800-fold the tested concentration and stored at -70 degrees C prior to their use. All drugs and investigational agents were tested over a range starting from a high concentration at or near the clinical Cmax and decreasing in half-log increments. If the clinical Cmax for an agent had not been determined, the highest concentration tested was 10 microM, except for SN-38, which was tested at a high concentration of 1 microM.
Cell Culture. All cells were maintained in an incubator at 37 degrees C and 5% CO2 with 95% humidity. The PDC lines were cultured according to standard operating procedures established by the NCI PDMR (https://pdmr.cancer.gov). Table 3 of the manuscript, lists the cell lines along with the number of the three cell types plated to form the mct-spheroids and media for tumor cell growth. After thawing, all PDC lines, except 997537-175-T-J1-PDC and 415267-285-R-J2-PDC, were cultured in Matrigel-coated flasks prepared with a working solution of 1X Ham's F-12 nutrient mix, without supplementation (Thermo Fisher Scientific, cat. 11765054), 100 U/mL penicillin-streptomycin (Thermo Fisher Scientific, cat. 15140122), and 2.5% Matrigel (Corning Inc., Corning, NY, cat. 354248) for the first three passages. The two PDC lines 997537-175-T-J1-PDC and 415267-285-R-J2-PDC were cultured on uncoated flasks. The 857933-349-R-J2-PDC line was cultured in 6C/Colon 1B media containing advanced DMEM/F-12 (Thermo Fisher Scientific, cat. 12634028), 10 mM HEPES (Thermo Fisher Scientific, cat. 15630080), 1X GlutaMAX supplement (Thermo Fisher Scientific, cat. 35050061), 0.1 mg/mL primocin (InvivoGen, San Diego, CA, cat. ant-pm-2), 10% defined fetal bovine serum, heat inactivated (HyClone Laboratories Inc., Logan, UT, cat. SH30070.03HI), 50% L-WRN conditioned media (ATCC, cat. CRL-3276), 1.25 mM N-Acetyl-L-cysteine (Sigma-Aldrich, cat. A9165), 10 mM nicotinamide (Sigma-Aldrich, cat. N0636), 1X B-27 supplement (Thermo Fisher Scientific, cat. 17504044), 1X N-2 supplement (Thermo Fisher Scientific, cat. […]

[1] = second compound 0.0316 µM, first compound 0.0316 µM
[2] = second compound 0.0316 µM, first compound 0.1 µM
[3] = second compound 0.0316 µM, first compound 0.316 µM
[4] = second compound 0.0316 µM, first compound 1 µM
[5] = second compound 0.1 µM, first compound 0.0316 µM
[6] = second compound 0.1 µM, first compound 0.1 µM
[7] = second compound 0.1 µM, first compound 0.316 µM
[8] = second compound 0.1 µM, first compound 1 µM
[9] = second compound 0.316 µM, first compound 0.0316 µM
[10] = second compound 0.316 µM, first compound 0.1 µM
[11] = second compound 0.316 µM, first compound 0.316 µM
[12] = second compound 0.316 µM, first compound 1 µM
[13] = second compound 1 µM, first compound 0.0316 µM
[14] = second compound 1 µM, first compound 0.1 µM
[15] = second compound 1 µM, first compound 0.316 µM
[16] = second compound 1 µM, first compound 1 µM
[17] = second compound 3.16 µM, first compound 0.0316 µM
[18] = second compound 3.16 µM, first compound 0.1 µM
[19] = second compound 3.16 µM, first compound 0.316 µM
[20] = second compound 3.16 µM, first compound 1 µM
[21] = second compound 10 µM, first compound 0.0316 µM
[22] = second compound 10 µM, first compound 0.1 µM
[23] = second compound 10 µM, first compound 0.316 µM
[24] = second compound 10 µM, first compound 1 µM
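Note: spheroids exposed to drugs for seven days before reading.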
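Throughout, for viability, T/C: 100% = DMSO vehicle control viability in luminescence.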

For `C=CC(=O)N1CCN(c2nc(=O)n(-c3c(C)ccnc3C(C)C)c3nc(-c4c(O)cccc4F)c(F)cc23)C(C)C1` (centres undefined) + Cc1cccc(N(C)C(=O)C2C(O)CCN2c2nc(C)cc(C(F)(F)F)c2C#N)c1, the IC50 (second compound 0.0316 µM) was > 10000 nM, the IC50 (second compound 0.1 µM) was > 10000 nM and the IC50 (second compound 0.316 µM) was > 10000 nM. For the same molecule, the IC50 (second compound 1 µM) was > 10000 nM, the IC50 (second compound 3.16 µM) was > 10000 nM and the IC50 (second compound 10 µM) was > 10000 nM. For the same molecule, the viability, T/C [1] was 114%, the viability, T/C [2] was 85% and the viability, T/C [3] was 101%. For the same molecule, the viability, T/C [4] was 93.8%, the viability, T/C (second compound 0.0316 µM, first compound 3.16 µM) was 109% and the viability, T/C (second compound 0.0316 µM, first compound 10 µM) was 97.9%. The viability, T/C [5] was 106%, the viability, T/C [6] was 91.4% and the viability, T/C [7] was 98.8%. It also gave a viability, T/C [8] of 103%, a viability, T/C (second compound 0.1 µM, first compound 3.16 µM) of 100% and a viability, T/C (second compound 0.1 µM, first compound 10 µM) of 110%. It also gave a viability, T/C [9] of 95.2%, a viability, T/C [10] of 96.9% and a viability, T/C [11] of 100%. For the same molecule, the viability, T/C [12] was 105%, the viability, T/C (second compound 0.316 µM, first compound 3.16 µM) was 101% and the viability, T/C (second compound 0.316 µM, first compound 10 µM) was 103%. For the same molecule, the viability, T/C [13] was 102%, the viability, T/C [14] was 105% and the viability, T/C [15] was 109%. For the same molecule, the viability, T/C [16] was 106%, the viability, T/C (second compound 1 µM, first compound 3.16 µM) was 102% and the viability, T/C (second compound 1 µM, first compound 10 µM) was 110%. For the same molecule, the viability, T/C [17] was 102%, the viability, T/C [18] was 96.5% and the viability, T/C [19] was 108%. It also gave a viability, T/C [20] of 98%, a viability, T/C (second compound 3.16 µM, first compound 3.16 µM) of 106% and a viability, T/C (second compound 3.16 µM, first compound 10 µM) of 113%. It also gave a viability, T/C [21] of 107%, a viability, T/C [22] of 101% and a viability, T/C [23] of 107%. It also gave a viability, T/C [24] of 113%, a viability, T/C (second compound 10 µM, first compound 3.16 µM) of 114% and a viability, T/C (second compound 10 µM, first compound 10 µM) of 107%.

Molecule `CCc1c2c(nc3ccc(O)cc13)-c1cc3c(c(=O)n1C2)COC(=O)[C@]3(O)CC` + Nc1ccc(C#CCN(C(=O)Cc2ncc(C(F)(F)F)cc2C(F)(F)F)c2ccc(F)cc2)nn1 has an IC50 (second compound 0.0316 µM) of 232 nM, an IC50 (second compound 0.1 µM) of 176 nM and an IC50 (second compound 0.316 µM) of 204 nM. The IC50 (second compound 1 µM) was 129 nM, the IC50 (second compound 3.16 µM) was 160 nM and the IC50 (second compound 10 µM) was 111 nM. It also gave a viability, T/C (second compound 0.0316 µM, first compound 0.00316 µM) of 92.1%, a viability, T/C (second compound 0.0316 µM, first compound 0.01 µM) of 75.4% and a viability, T/C [1] of 70.3%. It also gave a viability, T/C [2] of 62.1%, a viability, T/C [3] of 44.2% and a viability, T/C [4] of 35.7%. It also gave a viability, T/C (second compound 0.1 µM, first compound 0.00316 µM) of 94.8%, a viability, T/C (second compound 0.1 µM, first compound 0.01 µM) of 77.6% and a viability, T/C [5] of 78.6%. It also gave a viability, T/C [6] of 60%, a viability, T/C [7] of 38.1% and a viability, T/C [8] of 31%. The viability, T/C (second compound 0.316 µM, first compound 0.00316 µM) was 99%, the viability, T/C (second compound 0.316 µM, first compound 0.01 µM) was 76.2% and the viability, T/C [9] was 78.8%. The viability, T/C [10] was 57%, the viability, T/C [11] was 43.5% and the viability, T/C [12] was 31.9%. It also gave a viability, T/C (second compound 1 µM, first compound 0.00316 µM) of 103%, a viability, T/C (second compound 1 µM, first compound 0.01 µM) of 71.5% and a viability, T/C [13] of 69.8%. It also gave a viability, T/C [14] of 57.6%, a viability, T/C [15] of 36.4% and a viability, T/C [16] of 31%. It also gave a viability, T/C (second compound 3.16 µM, first compound 0.00316 µM) of 96.9%, a viability, T/C (second compound 3.16 µM, first compound 0.01 µM) of 79.8% and a viability, T/C [17] of 72.5%. The viability, T/C [18] was 56%, the viability, T/C [19] was 39.4% and the viability, T/C [20] was 36.5%. For the same molecule, the viability, T/C (second compound 10 µM, first compound 0.00316 µM) was 94%, the viability, T/C (second compound 10 µM, first compound 0.01 µM) was 76.7% and the viability, T/C [21] was 71.5%. It also gave a viability, T/C [22] of 50.6%, a viability, T/C [23] of 36.2% and a viability, T/C [24] of 34.4%.
